Legend:
[1] = antioxidant activity using DPPH method
Excerpt: The water extract obtained in the above methods was screened for antioxidant activity using 1,1-diphenyl-2-picrylhydrazyl (DPPH) [J. Agricultural and Food Chemistry, 50, 81-86, 2002].

[2] = antioxidant activity using β-carotene-linoleate model system; conditions: β-carotene-linoleate method
Excerpt: The water extract obtained, was screened for antioxidant activity using β-carotene-linoleate model systems.

Compound: COc1ccc(O)c(C(C)(C)C)c1 [BHA, butylated hydroxyanisole]
- antioxidant activity ([1]; 25 ppm): 71%
- antioxidant activity ([1]; 50 ppm): 94%
- antioxidant activity ([2]; 100 ppm): 81%
- antioxidant activity ([2]; 200 ppm): 89%
